Assay [1] deals with never-in-mitosis kinase 6 (NEK6) (Homo sapiens, UniProt Q9HC98). Kind of assay: Panel of protein kinases: NEK6. It counts as biochemical. Particulars: method of Davies et al. The method, then: (§1) The compounds of the present invention were screened against a large panel of protein kinase to determine inhibition activity for CDK as against a variety of protein kinases. The assay was conducted using methods and materials described by Davies, S et al. Specificity and Mechanism of Action of Some Commonly Used Protein Kinase Inhibitors, Biochem J. 351, 95–105 (2000), the contents of which are herein incorporated by reference. The compounds were screened against a panel of protein kinases which include AMP-activiated protein kinase (AMPK), checkpoint kinase (CHK1), casein kinases 1 and 2 (CK1 and CK2), cytoplasmic tyrosine kinase (CSK), dual serine/threonine/tyrosine kinase (DYRK1A), glycogen synthase kinase 3 (GSK3B), c-Jun N-terminal kinase (JNK), lymphocyte kinase (LCK), mitogen-activated protein kinases 2, K-1a, K2 (MAPK2, MAPKAP-K1a, and MAPKAP-K2), MAPK kinase (MKK1, also called MEK), mitogen and stress-activated protein kinase 1 (MSK1), never-in-mitosis kinase 6 (NEK6), p70 ribosomal protein S6 kinase (P70s6K1), 3-phosphoinositide-dependent protein kinase 1 (PDK1), phosphorylase kinase (PHK), protein kinase A (PKA), protein kinase B (PKB, also called Akt), protein kinase C (PKCa), p38-regulated/activated kinase (PRAK), Rho-dependent protein kinase (ROCK-II), stress-activated protein kinase 2a, 2b, 3 and 4 (SAPK-2A or p38, SAPK-2b or p38β2, SAPK3 or p38γ, SAPK4 or p38δ, respectively), and serum- and glucocorticoid-induced kinase (SGK). Compound activity was grouped into categories of weak (<50%), moderate (50–75%) and strong inhibition (>75%).

For assay [2], the target named is T1, stress-activated protein kinase 3 (SAPK3 or p38γ) (Homo sapiens, UniProt P53778).
T1 sequence (P53778 1-367): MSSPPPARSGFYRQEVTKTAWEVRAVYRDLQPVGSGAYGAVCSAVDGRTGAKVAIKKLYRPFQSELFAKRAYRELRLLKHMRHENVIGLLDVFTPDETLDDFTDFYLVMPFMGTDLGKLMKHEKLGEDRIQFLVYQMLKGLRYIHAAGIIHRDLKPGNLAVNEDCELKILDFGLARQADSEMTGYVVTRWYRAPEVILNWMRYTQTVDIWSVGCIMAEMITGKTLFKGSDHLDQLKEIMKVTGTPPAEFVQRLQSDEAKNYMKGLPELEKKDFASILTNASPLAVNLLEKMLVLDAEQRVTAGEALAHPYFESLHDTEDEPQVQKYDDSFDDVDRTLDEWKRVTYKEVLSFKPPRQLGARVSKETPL
Put plainly: Panel of protein kinases: SAPK3. It counts as biochemical. Particulars: method of Davies et al. On the procedure: as §1

The target in assay [3] is T2, stress-activated protein kinase 4 (SAPK4 or p38δ) (Homo sapiens, UniProt O15264).
T2 sequence (O15264 1-365): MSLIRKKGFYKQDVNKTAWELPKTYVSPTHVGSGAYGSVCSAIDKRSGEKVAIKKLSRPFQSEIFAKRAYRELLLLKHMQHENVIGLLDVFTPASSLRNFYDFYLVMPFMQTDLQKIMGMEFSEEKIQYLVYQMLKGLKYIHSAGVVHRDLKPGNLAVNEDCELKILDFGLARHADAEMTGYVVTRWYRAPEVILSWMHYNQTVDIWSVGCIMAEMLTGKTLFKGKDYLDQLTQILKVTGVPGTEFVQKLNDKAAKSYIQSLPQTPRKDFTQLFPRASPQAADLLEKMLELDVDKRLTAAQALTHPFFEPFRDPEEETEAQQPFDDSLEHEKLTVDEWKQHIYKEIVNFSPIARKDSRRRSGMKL
Kind of assay: Panel of protein kinases: SAPK4. In kind it is biochemical. The settings on record: method of Davies et al. On the procedure:
as §1

The subject of the next assay is HCT 116 cell line. Put plainly: Inhibition of cell growth, MTT tetrazolium salt assay. It counts as cell-based. Particulars: Homo sapiens, 50% inhibition of growth. On the procedure:
Inhibition of cell growth was measured using the tetrazolium salt assay, which is based on the ability of viable cells to reduce 3-(4,5-dimethylthiazol-2-yl)-2,5-[2H]-diphenyltetrazolium bromide (MTT) to formazan (Mossman, Journal of Immunological Methods, vol. 65 (1983), pp. 55–58). The water-insoluble purple formazan product was then detected spectrophotometrically. The HCT 116 cell line was grown in 96-well plates. Cells were plated in the appropriate medium at a volume of 135 μl/well in McCoy's 5A Medium. Plates were incubated for four hours before addition of inhibitor compounds. Different concentrations of inhibitor compounds were added in 0.5% (v/v) dimethylsulfoxide (15 μL/well), and cells were incubated at 37° C. (5% CO2) for four to six days (depending on cell type). At the end of the incubation, MTT was added to a final concentration of 0.2 mg/mL, and cells were incubated for 4 hours more at 37° C. After centrifugation of the plates and removal of medium, the absorbance of the formazan (solubilized in dimethylsulfoxide) was measured at 540 nm. The concentration of inhibitor compound causing 50% inhibition of growth was determined from the linear portion of a semi-log plot of inhibitor concentration versus percentage inhibition. All results were compared to control cells treated only with 0.5% (v/v) dimethylsulfoxide.

Another assay concerns the target protein kinase C (PKCa) (Homo sapiens, UniProt P17252). Put plainly: Panel of protein kinases: PKCa. Particulars: method of Davies et al. It counts as biochemical. The method, then: as §1
The target of assay [4] is protein kinase B (PKB, also called Akt) (Homo sapiens, UniProt P31749). Kind of assay: Panel of protein kinases: PKB. In kind it is biochemical. The settings on record: method of Davies et al. On the procedure: as §1
The target of assay [5] is cytoplasmic tyrosine kinase (CSK) (Homo sapiens, UniProt P41240). Kind of assay: Panel of protein kinases: CSK. It counts as biochemical. Particulars: method of Davies et al. On the procedure:
as §1

In another assay the target is MAPKAP-K2 (Homo sapiens, UniProt P49137). Kind of assay: Panel of protein kinases: MAPKAP-K2. In kind it is biochemical. The settings on record: method of Davies et al. On the procedure:
as §1

The structures appear in SMILES notation.

Chain of never-in-mitosis kinase 6 (NEK6) (Q9HC98 whole entry, species assumed): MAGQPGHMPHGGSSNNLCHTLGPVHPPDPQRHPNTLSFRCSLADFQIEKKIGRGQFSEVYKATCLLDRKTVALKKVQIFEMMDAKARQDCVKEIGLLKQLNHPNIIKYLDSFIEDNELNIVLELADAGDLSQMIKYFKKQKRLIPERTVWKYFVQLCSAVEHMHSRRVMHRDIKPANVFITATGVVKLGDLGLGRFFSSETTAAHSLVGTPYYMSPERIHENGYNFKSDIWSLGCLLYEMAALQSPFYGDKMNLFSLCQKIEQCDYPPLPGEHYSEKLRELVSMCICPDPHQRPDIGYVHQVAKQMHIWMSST
Chain of MAPKAP-K2 (P49137 whole entry, species assumed): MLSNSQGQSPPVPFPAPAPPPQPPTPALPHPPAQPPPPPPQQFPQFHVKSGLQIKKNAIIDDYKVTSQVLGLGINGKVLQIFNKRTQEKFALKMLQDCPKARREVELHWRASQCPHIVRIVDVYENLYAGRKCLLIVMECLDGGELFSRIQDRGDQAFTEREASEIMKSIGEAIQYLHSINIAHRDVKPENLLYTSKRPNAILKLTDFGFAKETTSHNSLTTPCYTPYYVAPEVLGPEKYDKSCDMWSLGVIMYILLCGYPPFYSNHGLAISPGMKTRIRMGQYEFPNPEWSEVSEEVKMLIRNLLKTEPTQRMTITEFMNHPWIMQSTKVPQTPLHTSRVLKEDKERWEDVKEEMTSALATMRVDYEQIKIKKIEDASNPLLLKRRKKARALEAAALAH
Chain of cytoplasmic tyrosine kinase (CSK) (P41240 whole entry, species assumed): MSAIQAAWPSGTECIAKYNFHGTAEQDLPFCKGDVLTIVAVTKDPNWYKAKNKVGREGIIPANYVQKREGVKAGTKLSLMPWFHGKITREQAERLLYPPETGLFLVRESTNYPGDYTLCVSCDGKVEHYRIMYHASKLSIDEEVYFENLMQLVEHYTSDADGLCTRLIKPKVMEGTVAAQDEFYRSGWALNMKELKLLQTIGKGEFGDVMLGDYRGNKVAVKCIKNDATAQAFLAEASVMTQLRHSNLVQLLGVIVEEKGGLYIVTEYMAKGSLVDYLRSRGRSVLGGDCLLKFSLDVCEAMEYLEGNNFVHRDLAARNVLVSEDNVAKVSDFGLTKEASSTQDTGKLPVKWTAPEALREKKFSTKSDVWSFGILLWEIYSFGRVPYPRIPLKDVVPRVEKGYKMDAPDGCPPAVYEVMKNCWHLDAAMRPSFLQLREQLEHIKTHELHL
Chain of protein kinase B (PKB, also called Akt) (P31749 118-480 limits assumed, species assumed): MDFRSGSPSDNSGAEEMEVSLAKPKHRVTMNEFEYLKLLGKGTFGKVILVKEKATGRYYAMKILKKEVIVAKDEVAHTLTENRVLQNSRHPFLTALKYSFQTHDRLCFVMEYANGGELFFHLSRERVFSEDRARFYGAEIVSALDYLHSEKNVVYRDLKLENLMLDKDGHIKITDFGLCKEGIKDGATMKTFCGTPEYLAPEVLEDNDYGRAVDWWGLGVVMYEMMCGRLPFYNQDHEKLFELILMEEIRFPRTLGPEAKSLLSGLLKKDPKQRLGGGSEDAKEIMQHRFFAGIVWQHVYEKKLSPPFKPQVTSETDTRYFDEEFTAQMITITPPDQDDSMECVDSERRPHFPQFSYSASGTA

As to `CCNCc1cncc(-c2ccc3[nH]nc(-c4nc5c(SC)cccc5[nH]4)c3c2)c1C` [C], the “Kinase NEK6 inhibition” value in assay [1] was “− (Weak inhibition <50%)”. Moreover, in assay [2], the “Kinase SAPK3 inhibition” value was “− (Weak inhibition <50%)”. For the same compound, the “Kinase SAPK4 inhibition” value in assay [3] is “− (Weak inhibition <50%)”. The IC50 in the assay with HCT 116 cell line amounted to 0.086 µM. Also, the “Kinase PKCa inhibition” value at protein kinase C (PKCa) was “+ (Moderate inhibition 50–75%)”. Moreover, the “Kinase PKB inhibition” value in assay [4] is given as “− (Weak inhibition <50%)”. Further, the “Kinase CSK inhibition” value in assay [5] is “− (Weak inhibition <50%)”. Besides, the “Kinase MAPKAP-K2 inhibition” value at MAPKAP-K2 is given as “− (Weak inhibition <50%)”.

Take `CCNCc1cncc(-c2ccc3[nH]nc(-c4nc5ccccc5[nH]4)c3c2)c1C` [A]: the “Kinase NEK6 inhibition” value in assay [1] is “− (Weak inhibition <50%)”. In addition, the “Kinase SAPK3 inhibition” value in assay [2] is on record as “− (Weak inhibition <50%)”. In addition, the “Kinase SAPK4 inhibition” value in assay [3] is “− (Weak inhibition <50%)”. Also, the IC50 in the assay with HCT 116 cell line worked out at 0.07 µM. Besides, the “Kinase PKCa inhibition” value at protein kinase C (PKCa) is on record as “+ (Moderate inhibition 50–75%)”. In addition, the “Kinase PKB inhibition” value in assay [4] is given as “− (Weak inhibition <50%)”. In addition, the “Kinase CSK inhibition” value in assay [5] is on record as “− (Weak inhibition <50%)”. Besides, the “Kinase MAPKAP-K2 inhibition” value at MAPKAP-K2 is reported as “− (Weak inhibition <50%)”.

As for `CCNCc1cncc(-c2ccc3[nH]nc(-c4nc5c(C(=O)NC)cccc5[nH]4)c3c2)c1C` [B], in assay [1], the “Kinase NEK6 inhibition” value is given as “− (Weak inhibition <50%)”. Also, the “Kinase SAPK3 inhibition” value in assay [2] is reported as “− (Weak inhibition <50%)”. For the same compound, the “Kinase SAPK4 inhibition” value in assay [3] is given as “− (Weak inhibition <50%)”. The IC50 in the assay on HCT 116 cell line is 0.09 µM. In addition, the “Kinase PKCa inhibition” value on protein kinase C (PKCa) is listed as “++ (Strong inhibition >75%)”. For the same compound, the “Kinase PKB inhibition” value in assay [4] is given as “− (Weak inhibition <50%)”. For the same compound, in assay [5], the “Kinase CSK inhibition” value is reported as “− (Weak inhibition <50%)”. Further, the “Kinase MAPKAP-K2 inhibition” value on MAPKAP-K2 was “− (Weak inhibition <50%)”.

With `CCNCc1cncc(-c2ccc3[nH]nc(-c4nc5c(NC(C)=O)cccc5[nH]4)c3c2)c1C` [D], the “Kinase NEK6 inhibition” value in assay [1] is given as “− (Weak inhibition <50%)”. In assay [2], the “Kinase SAPK3 inhibition” value is recorded as “− (Weak inhibition <50%)”. Further, in assay [3], the “Kinase SAPK4 inhibition” value is listed as “− (Weak inhibition <50%)”. Also, the 50% inhibitory concentration (IC50) in the assay on HCT 116 cell line was more than 0.5 µM. Further, at protein kinase C (PKCa), the “Kinase PKCa inhibition” value was “− (Weak inhibition <50%)”. Moreover, in assay [4], the “Kinase PKB inhibition” value is recorded as “− (Weak inhibition <50%)”. Moreover, the “Kinase CSK inhibition” value in assay [5] is recorded as “− (Weak inhibition <50%)”. The “Kinase MAPKAP-K2 inhibition” value at MAPKAP-K2 was “− (Weak inhibition <50%)”.

Turning to `CCNCc1cncc(-c2ccc3[nH]nc(-c4nc5cc(F)ccc5[nH]4)c3c2)c1C` [Example 2, Ethyl-{5-[3-(5-fluoro-1H-benzoimidazol-2-yl)-1H-indazol-5-yl]-4-methyl-pyridin-3-ylmethyl}-amine], the “Kinase NEK6 inhibition” value in assay [1] is recorded as “− (Weak inhibition <50%)”. The “Kinase SAPK3 inhibition” value in assay [2] is given as “− (Weak inhibition <50%)”. The “Kinase SAPK4 inhibition” value in assay [3] is on record as “− (Weak inhibition <50%)”. In the assay on HCT 116 cell line, the IC50 came to 0.022 µM. Also, the “Kinase PKCa inhibition” value on protein kinase C (PKCa) is “− (Weak inhibition <50%)”. Further, in assay [4], the “Kinase PKB inhibition” value was “− (Weak inhibition <50%)”. In addition, the “Kinase CSK inhibition” value in assay [5] is given as “− (Weak inhibition <50%)”. Besides, the “Kinase MAPKAP-K2 inhibition” value on MAPKAP-K2 is reported as “− (Weak inhibition <50%)”.

In the case of `CCNCc1cncc(-c2ccc3[nH]nc(-c4nc5c(F)cc(F)cc5[nH]4)c3c2)c1C` [Example 1, {5-[3-(4,6-Difluoro-1H-benzoimidazol-2-yl)-1H-indazol-5-yl]-4-methyl-pyridin-3-ylmethyl}-ethyl-amine], the “Kinase NEK6 inhibition” value in assay [1] is recorded as “− (Weak inhibition <50%)”. For the same compound, the “Kinase SAPK3 inhibition” value in assay [2] was “− (Weak inhibition <50%)”. Further, the “Kinase SAPK4 inhibition” value in assay [3] was “− (Weak inhibition <50%)”. In addition, the IC50 with HCT 116 cell line was determined as 0.12 µM. Moreover, on protein kinase C (PKCa), the “Kinase PKCa inhibition” value is “− (Weak inhibition <50%)”. Moreover, in assay [4], the “Kinase PKB inhibition” value is reported as “− (Weak inhibition <50%)”. In addition, the “Kinase CSK inhibition” value in assay [5] is reported as “− (Weak inhibition <50%)”. Also, the “Kinase MAPKAP-K2 inhibition” value at MAPKAP-K2 is on record as “− (Weak inhibition <50%)”.

Source of the values: patent publication US7008953B2, “3, 5 Disubstituted indazole compounds, pharmaceutical compositions, and methods for mediating or inhibiting cell proliferation” (Agouron Pharmaceuticals, Inc., priority 2003, dated 2006).
